Assay results taken from the NIST ThermoML archive (doi:10.1021/je700580g).

What was measured:
[1] = xn = mol fraction of the nth substance listed; conditions: 101 kPa, Liquid
[2] = 101.33 kPa, Liquid
[3] = refractive index (Na D-line) (dimensionless); conditions: 101.33 kPa, Liquid, Standard Abbe refractometry

OCCO [1,2-ethanediol] + CCCCO
mass density [kg/m3], [1]
Conditions | x1 = 0.08923 | x1 = 0.249 | x1 = 0.3206 | x1 = 0.4019 | x1 = 0.5347 | x1 = 0.6571 | x1 = 0.6974 | x1 = 0.7753 | x1 = 0.81 | x1 = 0.9121
293.15 K | 826.85 | 861.02 | 878.11 | 898.74 | 936.02 | 975.06 | 989.14 | 1017.69 | 1030.76 | 1073.19
298.15 K | 823.02 | 857.21 | 874.25 | 894.96 | 932.22 | 971.34 | 985.27 | 1013.86 | 1027.06 | 1069.67
303.15 K | 819.29 | 853.42 | 870.64 | 891.24 | 928.63 | 967.77 | 981.88 | 1010.51 | 1023.76 | 1066.15
308.15 K | 815.49 | 849.65 | 866.86 | 887.45 | 924.91 | 964.18 | 978.14 | 1006.95 | 1020.29 | 1062.56
313.15 K | 811.51 | 845.69 | 862.94 | 883.57 | 921.05 | 960.49 | 974.54 | 1003.28 | 1016.76 | 1059.01

CCCCCCO [hexan-1-ol]
Conditions | mass density, 293.15 K [kg/m3] | mass density, 298.15 K [kg/m3] | mass density, 303.15 K [kg/m3] | mass density, 308.15 K [kg/m3] | mass density, 313.15 K [kg/m3] | refractive index, 293.15 K | refractive index, 298.15 K
[2] | 818.74 | 815.28 | 811.71 | 808.13 | 804.53 | – | –
[3] | – | – | – | – | – | 1.4183 | 1.4161

CCCCO [butan-1-ol]
Conditions | mass density, 293.15 K [kg/m3] | mass density, 298.15 K [kg/m3] | mass density, 303.15 K [kg/m3] | mass density, 308.15 K [kg/m3] | mass density, 313.15 K [kg/m3] | refractive index, 293.15 K | refractive index, 298.15 K
[2] | 809.6 | 805.84 | 802.04 | 798.2 | 794.31 | – | –
[3] | – | – | – | – | – | 1.3997 | 1.3978

CCCCCCCCO [octan-1-ol] + OCCO
mass density [kg/m3], [1]
Conditions | x2 = 0.07997 | x2 = 0.159 | x2 = 0.2159 | x2 = 0.36 | x2 = 0.4825 | x2 = 0.5912 | x2 = 0.6299 | x2 = 0.7437 | x2 = 0.8063 | x2 = 0.8892
293.15 K | 833.01 | 842 | 849.21 | 870.86 | 894.13 | 920.03 | 930.8 | 968.64 | 994.57 | 1036.57
298.15 K | 829.64 | 838.63 | 845.74 | 867.38 | 890.64 | 916.52 | 927.19 | 965.11 | 991.03 | 1033.02
303.15 K | 826.15 | 835.13 | 842.24 | 863.92 | 887.11 | 912.94 | 923.7 | 961.5 | 987.45 | 1029.52
308.15 K | 822.68 | 831.61 | 838.76 | 860.33 | 883.47 | 909.33 | 920.08 | 957.92 | 983.8 | 1025.99
313.15 K | 819.15 | 828.07 | 835.18 | 856.83 | 879.91 | 905.71 | 916.5 | 954.32 | 980.25 | 1022.37

CCCCCCO [hexan-1-ol] + OCCO
mass density [kg/m3], [1]
Conditions | x2 = 0.08275 | x2 = 0.1585 | x2 = 0.2374 | x2 = 0.3265 | x2 = 0.4905 | x2 = 0.5445 | x2 = 0.5965 | x2 = 0.6932 | x2 = 0.7757 | x2 = 0.9053
293.15 K | 829.72 | 840.78 | 853.56 | 869.87 | 905.8 | 919.79 | 934.39 | 965.41 | 996.6 | 1057.08
298.15 K | 826.21 | 837.17 | 849.99 | 866.29 | 902.2 | 916.19 | 930.83 | 961.84 | 993.11 | 1053.67
303.15 K | 822.63 | 833.58 | 846.39 | 862.69 | 898.58 | 912.56 | 927.24 | 958.23 | 989.49 | 1050.1
308.15 K | 819.02 | 829.96 | 842.67 | 859.01 | 894.88 | 908.9 | 923.53 | 954.54 | 985.79 | 1046.52
313.15 K | 815.44 | 826.33 | 839.04 | 855.36 | 891.27 | 905.23 | 919.95 | 950.95 | 982.18 | 1042.98

OCCO [1,2-ethanediol]
Conditions | mass density, 293.15 K [kg/m3] | mass density, 303.15 K [kg/m3] | mass density, 313.15 K [kg/m3] | refractive index, 293.15 K | refractive index, 298.15 K
[2] | 1113.37 | 1106.4 | 1099.35 | – | –
[3] | – | – | – | 1.4323 | 1.4309

CCCCCCCCO [octan-1-ol]
Conditions | mass density, 293.15 K [kg/m3] | mass density, 298.15 K [kg/m3] | mass density, 303.15 K [kg/m3] | mass density, 308.15 K [kg/m3] | mass density, 313.15 K [kg/m3] | refractive index, 293.15 K | refractive index, 298.15 K
[2] | 825.12 | 821.75 | 818.31 | 814.8 | 811.41 | – | –
[3] | – | – | – | – | – | 1.4298 | 1.428
